11 molecules from US20140135310A1, “SULPHONAMIDE DERIVATIVES OF ALICYCLIC AMINES FOR THE TREATMENT OF CENTRAL NERVOUS SYSTEM DISEASES” (Adamed Sp. z o.o., priority 2011, published 2014) can be followed below.

Assay [1] deals with dopaminergic receptors D2 (Homo sapiens, UniProt P14416). Nature of the assay: Radioligand binding assay, dopaminergic D2 receptors. As to conditions: for inhibition at 1 µM: binding assay, test compound 1×10^−6 M; for Ki: read-out: Inhibition constants Ki for D2 receptors, D2. The gist of the method:
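Displacement of radioligand from human dopamine D2, D3 or D4.4 receptors, counted by scintillation; specific binding is total minus binding under excess unlabelled ligand. IC50 values come from Hill curve fits of percent inhibition, then converted to Ki by Cheng-Prusoff using Scatchard-derived KD.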

Assay [2] concerns the target T1, 5-HT1A receptor (rat hippocampus) (Rattus norvegicus, UniProt P19327).
T1 construct: hippocampus; from tissue; host or cells: rat hippocampus
T1 sequence (P19327 1-422): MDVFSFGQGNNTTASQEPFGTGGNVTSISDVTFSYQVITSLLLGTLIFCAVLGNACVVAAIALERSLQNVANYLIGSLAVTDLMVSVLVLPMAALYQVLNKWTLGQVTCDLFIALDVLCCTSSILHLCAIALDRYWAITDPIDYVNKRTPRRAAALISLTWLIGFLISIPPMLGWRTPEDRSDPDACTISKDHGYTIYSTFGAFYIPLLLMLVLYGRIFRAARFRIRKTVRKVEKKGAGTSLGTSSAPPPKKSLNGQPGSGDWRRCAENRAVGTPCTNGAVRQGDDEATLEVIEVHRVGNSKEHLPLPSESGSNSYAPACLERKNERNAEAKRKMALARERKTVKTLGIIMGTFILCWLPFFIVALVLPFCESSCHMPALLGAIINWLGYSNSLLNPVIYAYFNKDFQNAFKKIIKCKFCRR
Briefly: Radioligand binding assay, serotoninergic 5-HT1A receptors. The settings on record: binding assay result in %, Table 5a.

In a further assay the target is T2, 5-HT2C receptor (Homo sapiens, UniProt P28335).
T2 construct: expressed in transfected cells; host or cells: HEK-293 cells
T2 sequence (P28335 33-458): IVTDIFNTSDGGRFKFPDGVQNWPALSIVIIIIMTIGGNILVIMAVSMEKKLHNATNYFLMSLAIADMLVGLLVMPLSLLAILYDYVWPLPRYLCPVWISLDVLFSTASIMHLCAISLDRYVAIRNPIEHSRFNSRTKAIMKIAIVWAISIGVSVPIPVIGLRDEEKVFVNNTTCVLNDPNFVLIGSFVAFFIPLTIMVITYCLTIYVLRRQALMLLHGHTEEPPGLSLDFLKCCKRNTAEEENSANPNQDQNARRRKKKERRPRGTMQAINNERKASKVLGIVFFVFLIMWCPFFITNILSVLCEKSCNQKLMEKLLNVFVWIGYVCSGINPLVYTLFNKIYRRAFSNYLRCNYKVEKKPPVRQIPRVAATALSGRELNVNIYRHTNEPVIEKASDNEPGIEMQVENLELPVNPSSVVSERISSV
Briefly: Radioligand binding assay, serotoninergic 5-HT2C receptors. The settings on record: test compound 1×10^−6 M.

In a further assay the target is T3, 5-HT7 receptor (Homo sapiens, UniProt P34969).
T3 construct: purchased PerkinElmer
T3 sequence (P34969 whole entry): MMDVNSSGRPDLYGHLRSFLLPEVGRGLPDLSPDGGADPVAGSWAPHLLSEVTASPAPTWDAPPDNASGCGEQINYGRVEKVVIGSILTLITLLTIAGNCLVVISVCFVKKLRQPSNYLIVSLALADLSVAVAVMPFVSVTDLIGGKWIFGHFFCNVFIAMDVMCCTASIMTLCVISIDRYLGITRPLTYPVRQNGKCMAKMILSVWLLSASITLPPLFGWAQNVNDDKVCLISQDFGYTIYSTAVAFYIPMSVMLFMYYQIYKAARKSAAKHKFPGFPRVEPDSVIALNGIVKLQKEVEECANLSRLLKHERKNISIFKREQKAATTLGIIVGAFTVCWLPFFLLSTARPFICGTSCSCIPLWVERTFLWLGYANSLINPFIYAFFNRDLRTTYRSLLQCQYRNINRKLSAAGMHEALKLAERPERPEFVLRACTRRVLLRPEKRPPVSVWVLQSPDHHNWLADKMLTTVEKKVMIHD
Briefly: Radioligand binding assay, serotoninergic 5-HT7 receptors. The settings on record: binding assay result in %, Table 5a. The gist of the method: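 Ki values used the Cheng–Prusoff equation, with KD from Scatchard analysis, applied to IC50 from Hill fits of human 5-HT7 radioligand competition curves. Bound radioligand was counted by scintillation, and excess unlabelled ligand set the non-specific binding.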

The target in another assay is T4, α2C adrenergic receptors (Homo sapiens, UniProt P18825).
T4 construct: expressed in transfected cells; host or cells: CHO cells
T4 sequence (P18825 1-462): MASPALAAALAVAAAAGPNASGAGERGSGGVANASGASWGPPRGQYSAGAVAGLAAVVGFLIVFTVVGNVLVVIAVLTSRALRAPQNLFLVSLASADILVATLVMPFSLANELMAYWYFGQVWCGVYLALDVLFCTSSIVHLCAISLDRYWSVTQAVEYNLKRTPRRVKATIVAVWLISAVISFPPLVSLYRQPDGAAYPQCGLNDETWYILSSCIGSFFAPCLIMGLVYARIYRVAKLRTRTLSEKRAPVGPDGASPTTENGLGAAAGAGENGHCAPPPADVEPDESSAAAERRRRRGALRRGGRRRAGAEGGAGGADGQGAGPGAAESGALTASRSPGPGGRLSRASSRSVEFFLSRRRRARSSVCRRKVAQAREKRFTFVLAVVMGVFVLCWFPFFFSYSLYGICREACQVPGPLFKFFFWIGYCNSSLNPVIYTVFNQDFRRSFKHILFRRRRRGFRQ
Briefly: Radioligand binding assay, adrenergic α2C receptors. As to conditions: test compound 1×10^−6 M. The gist of the method:
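Competitive radioligand binding at human α2C receptors, with scintillation counting. Nonspecific binding defined with excess unlabelled ligand; results given as % inhibition of control specific binding. IC50 from Hill-equation fits of competition curves; Ki via Cheng-Prusoff using radioligand concentration and Scatchard-derived KD.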

Assay [3] has as its target T5, serotonin transporter (SERT) (Homo sapiens, UniProt P31645).
T5 construct: expressed in transfected cells; host or cells: CHO cells
Nature of the assay: Radioligand binding assay, serotonin transporter (SERT). As to conditions: binding assay, test compound 1×10^−6 M. The gist of the method: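 Values are derived from competition curves fitted by the Hill equation to give IC50, then converted to Ki by Cheng-Prusoff with radioligand Kd from Scatchard analysis. Specific binding equals total minus non-specific (excess cold ligand), counted by scintillation, and is also expressed as percent inhibition of control.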

In assay [4] the target is T6, H1 histaminergic receptors (Homo sapiens, UniProt P35367).
T6 construct: expressed in transfected cells; host or cells: HEK-293 cells
T6 sequence (P35367 whole entry): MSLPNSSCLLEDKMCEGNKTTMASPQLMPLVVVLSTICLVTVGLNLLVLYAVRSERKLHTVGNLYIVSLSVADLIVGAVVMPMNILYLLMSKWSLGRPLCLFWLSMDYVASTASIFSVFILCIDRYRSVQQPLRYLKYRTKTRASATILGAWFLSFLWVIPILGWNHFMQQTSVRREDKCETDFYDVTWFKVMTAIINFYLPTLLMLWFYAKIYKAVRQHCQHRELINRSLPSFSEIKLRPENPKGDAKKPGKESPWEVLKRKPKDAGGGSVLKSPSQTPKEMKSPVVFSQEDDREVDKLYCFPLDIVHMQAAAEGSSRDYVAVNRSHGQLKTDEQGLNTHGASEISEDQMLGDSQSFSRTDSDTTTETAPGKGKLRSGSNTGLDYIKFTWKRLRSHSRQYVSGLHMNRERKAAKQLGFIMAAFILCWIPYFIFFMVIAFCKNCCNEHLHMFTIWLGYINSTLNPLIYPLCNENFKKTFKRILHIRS
Briefly: Radioligand binding assay, histaminergic H1 receptors. As to conditions: human recombinant (HEK-293 cells), [3H]pyrilamine 1 nM. The method in brief:
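Competition binding at human H1 receptors; specific binding taken as total minus non-specific binding in excess unlabelled ligand, scintillation read-out. IC50 from Hill-equation fit of competition curves; Ki by Cheng-Prusoff using radioligand concentration and Kd (from Scatchard plot).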

T5 sequence (P31645 whole entry): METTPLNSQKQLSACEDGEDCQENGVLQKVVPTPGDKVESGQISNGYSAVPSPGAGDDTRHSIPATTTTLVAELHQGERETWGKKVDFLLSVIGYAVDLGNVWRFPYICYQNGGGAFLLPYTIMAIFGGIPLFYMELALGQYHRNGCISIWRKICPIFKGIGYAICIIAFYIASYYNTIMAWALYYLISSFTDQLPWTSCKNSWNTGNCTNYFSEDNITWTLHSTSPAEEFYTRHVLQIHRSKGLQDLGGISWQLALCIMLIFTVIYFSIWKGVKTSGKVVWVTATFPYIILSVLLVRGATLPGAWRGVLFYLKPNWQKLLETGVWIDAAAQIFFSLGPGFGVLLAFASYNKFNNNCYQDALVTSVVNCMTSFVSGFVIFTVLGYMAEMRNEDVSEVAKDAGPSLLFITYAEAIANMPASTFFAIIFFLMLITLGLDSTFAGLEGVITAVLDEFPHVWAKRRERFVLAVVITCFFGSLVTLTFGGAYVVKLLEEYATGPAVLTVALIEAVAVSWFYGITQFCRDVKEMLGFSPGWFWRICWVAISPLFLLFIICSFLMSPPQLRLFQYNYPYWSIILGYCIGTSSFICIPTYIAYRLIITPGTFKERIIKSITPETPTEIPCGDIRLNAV
dopaminergic receptors D2, sequence (P14416 whole entry): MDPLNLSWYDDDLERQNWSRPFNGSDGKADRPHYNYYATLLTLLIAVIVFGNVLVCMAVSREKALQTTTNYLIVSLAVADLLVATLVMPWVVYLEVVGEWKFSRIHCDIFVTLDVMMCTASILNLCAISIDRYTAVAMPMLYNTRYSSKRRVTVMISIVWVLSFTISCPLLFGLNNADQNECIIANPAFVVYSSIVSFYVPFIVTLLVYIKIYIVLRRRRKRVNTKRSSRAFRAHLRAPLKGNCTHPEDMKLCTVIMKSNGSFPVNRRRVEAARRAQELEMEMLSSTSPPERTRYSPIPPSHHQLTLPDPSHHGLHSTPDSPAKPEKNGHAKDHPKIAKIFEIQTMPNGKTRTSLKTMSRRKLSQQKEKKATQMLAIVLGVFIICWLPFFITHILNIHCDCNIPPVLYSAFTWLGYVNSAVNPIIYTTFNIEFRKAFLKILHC

As to `O=S(=O)(N[C@@H]1CCN(CCCc2noc3cc(F)ccc23)C1)c1cc2ccccc2o1` [Compound 214, N-[(3R)-1-[3-(6-Fluoro-1,2-benzoxazol-3-yl)propyl]pyrrolidin-3-yl]benzo-furan-2-sulphonamide], the inhibition at 1 µM is 97% in assay [1]; 34% in assay [2]; 65% at 5-HT2C receptor; 98% on 5-HT7 receptor; 74% on α2C adrenergic receptors; 15% in assay [3]. Moreover, the inhibition at 1 µM in assay [4] was 52%. Moreover, in assay [1], the Ki was determined as 2.8 nM.

As to `O=S(=O)(N[C@H]1CCN(CCCc2noc3cc(F)ccc23)C1)c1cc2ccccc2o1` [Compound 215, N-[(3S)-1-[3-(6-Fluoro-1,2-benzoxazol-3-yl)propyl]pyrrolidin-3-yl]benzo-furan-2-sulphonamide], the inhibition at 1 µM in assay [1] was 97%; in assay [2] it was 52%; on 5-HT2C receptor, 74%; at 5-HT7 receptor, 98%; on α2C adrenergic receptors, 66%; in assay [3] it was 35%. Moreover, the inhibition at 1 µM in assay [4] worked out at 50%. In addition, the Ki in assay [1] worked out at 3 nM.

Regarding `O=S(=O)(NC1CCN(CCCc2noc3cc(F)ccc23)C1)c1cc2ccccc2o1` (stereo not drawn) [Compound 216, N-[1-[3-(6-Fluoro-1,2-benzoxazol-3-yl)propyl]pyrrolidin-3-yl]benzofuran-2-sulphonamide], the inhibition at 1 µM in assay [1] stood at 98%; in assay [2], 35%; at 5-HT2C receptor it was 62%; at 5-HT7 receptor it was 99%; on α2C adrenergic receptors, 80%; in assay [3], 53%. In assay [4], the inhibition at 1 µM was 61%.

With `Cn1ccc2cc(S(=O)(=O)NC3CCN(CCCc4noc5cc(F)ccc45)C3)ccc21` (stereo not drawn) [Compound 218, N-[1-[3-(6-Fluoro-1,2-benzoxazol-3-yl)propyl]pyrrolidin-3-yl]-1-methyl-indole-5-sulphonamide], the inhibition at 1 µM was 99% in assay [1]; 91% in assay [2]; 82% on 5-HT2C receptor; 98% at 5-HT7 receptor; 94% at α2C adrenergic receptors; 95% in assay [3]. Also, in assay [4], the inhibition at 1 µM stood at 77%.

On to `Cc1cc(S(=O)(=O)NC2CCN(CCCc3noc4cc(F)ccc34)C2)c(C)s1` (stereo not drawn) [Compound 221, N-[1-[3-(6-Fluoro-1,2-benzoxazol-3-yl)propyl]pyrrolidin-3-yl]-2,5-dimethyl-thiophene-3-sulphonamide], for which the inhibition at 1 µM in assay [1] is 97%; in assay [2], 67%; at 5-HT2C receptor it was 81%; on 5-HT7 receptor, 95%; on α2C adrenergic receptors, 88%; in assay [3], 67%. Further, the inhibition at 1 µM in assay [4] is 66%.

For the molecule `Cc1cc(S(=O)(=O)N[C@@H]2CCN(CCCc3noc4cc(F)ccc34)C2)c(C)s1` [Compound 222, N-[(3R)-1-[3-(6-Fluoro-1,2-benzoxazol-3-yl)propyl]pyrrolidin-3-yl]-2,5-dimethyl-thiophene-3-sulphonamide], the inhibition at 1 µM in assay [1] stood at 97%; in assay [2], 72%; at 5-HT2C receptor, 65%; on 5-HT7 receptor it was 102%; at α2C adrenergic receptors, 77%; in assay [3], 2%. Moreover, in assay [4], the inhibition at 1 µM is 79%.

Regarding `Cc1cc(S(=O)(=O)N[C@H]2CCN(CCCc3noc4cc(F)ccc34)C2)c(C)s1` [Compound 223, N-[(3S)-1-[3-(6-Fluoro-1,2-benzoxazol-3-yl)propyl]pyrrolidin-3-yl]-2,5-dimethyl-thiophene-3-sulphonamide], the inhibition at 1 µM in assay [1] was determined as 89%; in assay [2] it was 49%; on 5-HT2C receptor, 65%; at 5-HT7 receptor, 100%; on α2C adrenergic receptors, 60%; in assay [3], 17%. Besides, in assay [4], the inhibition at 1 µM was determined as 52%.

For `O=S(=O)(N[C@@H]1CCN(CCCc2noc3cc(F)ccc23)C1)c1csc2ccccc12` [Compound 224, N-[(3R)-1-[3-(6-Fluoro-1,2-benzoxazol-3-yl)propyl]pyrrolidin-3-yl]benzothiophene-3-sulphonamide], the inhibition at 1 µM in assay [1] amounted to 98%; in assay [2], 76%; at 5-HT2C receptor it was 71%; at 5-HT7 receptor, 103%; at α2C adrenergic receptors, 79%; in assay [3], 64%. Moreover, the inhibition at 1 µM in assay [4] amounted to 60%. Further, the Ki in assay [1] was determined as 8.7 nM.

With `O=S(=O)(N[C@H]1CCN(CCCc2noc3cc(F)ccc23)C1)c1csc2ccccc12` [Compound 225, N-[(3S)-1-[3-(6-Fluoro-1,2-benzoxazol-3-yl)propyl]pyrrolidin-3-yl]benzothiophene-3-sulphonamide], the inhibition at 1 µM in assay [1] is 97%; in assay [2], 62%; on 5-HT2C receptor it was 72%; at 5-HT7 receptor, 100%; on α2C adrenergic receptors, 80%; in assay [3], 77%. In assay [4], the inhibition at 1 µM is 57%. Besides, the Ki in assay [1] was 9.2 nM.

`Cc1ccc2sc(S(=O)(=O)NC3CCN(CCCc4noc5cc(F)ccc45)C3)cc2c1` (stereo not drawn) [Compound 226, N-[1-[3-(6-Fluoro-1,2-benzoxazol-3-yl)propyl]pyrrolidin-3-yl]-5-methylbenzothiophene-2-sulphonamide]: the inhibition at 1 µM is 99% in assay [1]; 43% in assay [2]; 89% on 5-HT2C receptor; 91% at 5-HT7 receptor; 86% at α2C adrenergic receptors; 54% in assay [3]. Further, the inhibition at 1 µM in assay [4] worked out at 73%.

In the case of `COc1ccc2cc(S(=O)(=O)NC3CCN(CCCc4noc5cc(F)ccc45)C3)ccc2c1` (stereo not drawn) [Compound 227, N-[1-[3-(6-Fluoro-1,2-benzoxazol-3-yl)propyl]pyrrolidin-3-yl]-6-methoxy-naphthalene-2-sulphonamide], the inhibition at 1 µM came out at 97% in assay [1]; 62% in assay [2]; 82% at 5-HT2C receptor; 91% at 5-HT7 receptor; 90% on α2C adrenergic receptors; 69% in assay [3]. Also, the inhibition at 1 µM in assay [4] came out at 69%.
